{
  "source": "patent US20110081428A1",
  "about": "“Use of thioflavin-like compounds to increase life span and/or health span” (priority 2009, published 2011)",
  "format_in_all_cases": "in vivo, Caenorhabditis elegans",
  "key": {"[1]": {"test_system": "wildtype (N2) C. elegans", "assay": "Demographic analysis of age-specific mortality (Gompertz)", "settings": "50 μM ThT, p<0.001", "protocol": "Data are presented as bends/min and represent the average of three independent experiments. *p<0.0001. e) Dose-response Kaplan-Meier survival curves of synchronously ageing hermaphrodite N2 populations exposed to 0 (control) to […], f) HBX and g) HBT at 20° C. (−) Control, (▪) 1 nM, ([…]) 10 μM, (▴) 100 μM, (▾) […]. Graphs are representative of three independent experiments.\nEstimates of initial mortality rate and rate of increase with age and model fitting were made using WinModest. Gompertz mortality curves, ln(ux)=ln(a)+bx, where ux defines the age-specific hazard, were fitted with log-likelihood ratios used to examined the effects of constraining the intercept (a) or gradient (b) variables."}, "[2]": {"test_system": "HSF-1", "assay": "Western blot HSF-1", "settings": "ThT treatment", "protocol": "Peptide corresponding to amino acids 110-145 ([…]; SEQ ID NO:1) of HSP-16.2 was used to commercially synthesize antiserum (Invitrogen). Briefly, KLH-peptide was emulsified by mixing with an equal volume of Freund's adjuvant and injected into three subcutaneous dorsal sites for a total of 0.1 mg of peptide for immunization. The animals (rabbits) were bled, the blood allowed to clot and the serum collected by centrifugation. Monoclonal HSP-70 and Polyclonal HSF-1 primary antibodies were from stressgen (N27F3-4 and SPA-901, respectively).\nWorms were transferred to siliconized eppendorf tubes, washed once in S-basal and frozen in liquid N2. Standard SDS-PAGE was performed using (4-12%) NOVEX gels and IVIES running buffer. Following transfer PVDF (BioRad) membranes were incubated with antisera (1:10000) or primary antibodies (1:1000) diluted in blocking buffer and then with secondary, goat anti-rabbit IgG antibody/horseradish peroxidase conjugate (Pierce), diluted 1:25000. Detection was undertaken with chemiluminescent reagents (SuperSignal, Pierce) and standard autoradiography."}, "[3]": {"test_system": "SKN-1 fusion protein [CF2189 (skn-1::GFP)]", "assay": "SKN-1::GFP localization", "settings": "ThT treatment", "protocol": "For fluorescent microscopy, TJ356 zIs356 IV [daf-16::daf-16-gfp+rol-6] or CF2189 Is001(skn-1::gfp+rol-6) were paralyzed with 1 mM levamisole mounted on 1% agarose pads and imaged using Olympus BX51 (60× objective) and HCImage software (Hamamatsu). For immunofluorescence, N2, […], CB1157 unc-54(e1157) or CL4176 dvIs27 [myo-3::Aβ(3 to 42)-let 3′UTR(pAF29); pRF4 (rol-6(su1006))] worms were treated for 24-36 h with or without 50 μM ThT at 25° C. After this period the worms were collected, rinsed, and fixed in 4% paraformaldehyde overnight. […] Paramyosin and perlecans were detected with primary monoclonal antibodies 5-23 and MH3 (developed by Henry Epstein and Robert H. Waterston and obtained from the Developmental Studies Hybridoma Bank developed under the auspices of the NICHD and maintained by The University of Iowa, Department of Biology, Iowa City, Iowa 52242) and AlexaFluor 633 goat anti-mouse (Molecular Probes) as secondary antibody. Soluble oligomers and Aβ peptide were detected with anti polyclonal All (Invitrogen) and 6E10 monoclonal (Covance) primary antibodies, respectively, with AlexaFluor 568 goat anti-rabbit and AlexaFluor 488 goat anti-mouse (Molecular Probes) as secondary antibodies. Images were processed and quantified by using Image Analyst MK II (Novato, Calif.)."}, "[4]": {"test_system": "AM140 (rmIs132[P(unc-54) Q35::YFP])", "assay": "Worm paralysis assay, polyQ model", "settings": "AM140, 25° C., 8 days; 50 μM ThT, 100 μM curcumin", "method": "Scoring for paralysis was initiated 2 and 8 days after temperature upshift for CL4176 and AM140, respectively. […] For sensitivity to EtOH or levamisole resistance, CW152 gas-1 (fc21) X and ZZ26 unc-63(x26)I worms were picked into 0.4 M EtOH or 50 μM levamisole, respectively, equilibrated for 5 min, and scored for paralysis as described above. Treated and untreated worms were compared with an unpaired t-test (implemented in Prism 4, Graphpad™ Software, Inc., San Diego, Calif., USA)."}},
  "data": [
    {"compound": "Cc1ccc2c(c1)sc(-c1ccc(N(C)C)cc1)[n+]2C.[Cl-]", "note": "[ThT, 4-(3,6-dimethyl-1,3-benzothiazol-3-ium-2-yl)-N,N-dimethylaniline chloride]", "values": [
      {"measurement": "age-specific mortality", "setting": "[1]", "result": "reduced age-specific mortality at all ages"},
      {"measurement": "HSF-1 protein levels", "setting": "[2]", "result": "slight increase"},
      {"measurement": "SKN-1::GFP nuclear accumulation", "setting": "[3]", "result": "no nuclear accumulation"},
      {"measurement": "proportion of paralyzed worms", "setting": "[4]", "result": "significantly decrease the proportion of paralyzed worms"}
    ]}
  ]
}
